IC50 data for 13 compounds are collected here from US20030105119A1, “Barbiturates as integrin antagonists and their use for treating inflammatory diseases” (priority 2001, published 2003).

Usually IC50 stands for the point on the concentration scale where inhibition reaches its midpoint.

This assay deals with T1, α4β7 integrin binding to human MAdCAM-1-Ig (Homo sapiens, UniProt P13612+P26010).
T1 construct: endogenous in cells; host or cells: RPMI 8866 cells
T1 sequence (P13612 34-1032): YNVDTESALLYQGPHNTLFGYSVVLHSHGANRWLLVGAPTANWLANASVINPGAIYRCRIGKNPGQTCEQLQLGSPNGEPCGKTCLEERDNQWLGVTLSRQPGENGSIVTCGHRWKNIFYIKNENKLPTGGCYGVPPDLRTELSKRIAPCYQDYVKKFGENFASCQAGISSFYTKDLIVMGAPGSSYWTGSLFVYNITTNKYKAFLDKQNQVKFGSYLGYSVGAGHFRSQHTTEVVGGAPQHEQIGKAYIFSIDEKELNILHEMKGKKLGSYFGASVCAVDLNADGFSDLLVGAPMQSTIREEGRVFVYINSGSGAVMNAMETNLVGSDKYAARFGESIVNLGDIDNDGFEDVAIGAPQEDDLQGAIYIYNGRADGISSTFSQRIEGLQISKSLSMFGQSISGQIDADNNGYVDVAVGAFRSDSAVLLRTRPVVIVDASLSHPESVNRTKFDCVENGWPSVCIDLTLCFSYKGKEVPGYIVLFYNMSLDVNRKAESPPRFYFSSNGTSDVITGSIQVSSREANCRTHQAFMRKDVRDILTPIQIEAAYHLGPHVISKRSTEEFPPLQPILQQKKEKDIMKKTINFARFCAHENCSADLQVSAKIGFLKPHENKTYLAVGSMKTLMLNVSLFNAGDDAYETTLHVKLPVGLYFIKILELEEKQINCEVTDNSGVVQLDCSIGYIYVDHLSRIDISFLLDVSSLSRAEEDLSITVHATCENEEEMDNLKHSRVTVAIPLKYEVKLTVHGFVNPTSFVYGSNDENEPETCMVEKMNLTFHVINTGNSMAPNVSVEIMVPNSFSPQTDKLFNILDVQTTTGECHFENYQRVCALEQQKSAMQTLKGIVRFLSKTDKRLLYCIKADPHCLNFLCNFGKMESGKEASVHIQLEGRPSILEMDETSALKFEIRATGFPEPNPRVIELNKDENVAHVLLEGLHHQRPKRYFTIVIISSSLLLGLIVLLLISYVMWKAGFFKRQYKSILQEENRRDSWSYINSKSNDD
T1 sequence (P26010 20-798): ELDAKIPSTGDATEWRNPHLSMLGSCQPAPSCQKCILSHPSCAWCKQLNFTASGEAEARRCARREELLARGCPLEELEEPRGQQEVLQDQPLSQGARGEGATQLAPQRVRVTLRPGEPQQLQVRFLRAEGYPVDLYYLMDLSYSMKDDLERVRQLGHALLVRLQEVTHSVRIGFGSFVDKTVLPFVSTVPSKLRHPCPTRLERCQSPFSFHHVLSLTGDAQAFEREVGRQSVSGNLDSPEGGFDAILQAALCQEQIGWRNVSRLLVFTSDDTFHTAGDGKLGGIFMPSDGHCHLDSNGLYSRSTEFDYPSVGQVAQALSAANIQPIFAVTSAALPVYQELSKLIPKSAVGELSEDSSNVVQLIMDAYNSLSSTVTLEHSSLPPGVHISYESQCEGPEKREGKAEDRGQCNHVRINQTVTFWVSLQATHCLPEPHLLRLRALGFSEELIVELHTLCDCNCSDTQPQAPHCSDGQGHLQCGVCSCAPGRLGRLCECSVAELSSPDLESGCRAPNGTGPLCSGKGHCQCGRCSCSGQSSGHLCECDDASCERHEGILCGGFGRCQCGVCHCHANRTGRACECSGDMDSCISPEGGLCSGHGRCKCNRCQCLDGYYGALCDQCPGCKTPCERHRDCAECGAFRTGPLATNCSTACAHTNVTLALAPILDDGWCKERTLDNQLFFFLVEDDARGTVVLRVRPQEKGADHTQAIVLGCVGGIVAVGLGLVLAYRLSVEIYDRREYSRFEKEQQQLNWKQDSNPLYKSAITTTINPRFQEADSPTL
Description: Adhesion inhibition assay (BCEF-labeled RPMI 8866 cells on huMAdCAM-1-Ig coated plates). It counts as cell-based. As for the experimental part: Biological Results. Adhesion Inhibition Assay Method
RPMI 8866 cells are used in this assay. They are available in a medium with 10% FBS, 200 mM L-Glutamine, and penicillin/streptomycin 10x.
1. Coat plates (costar 3590) with a human MAdCAM-1-Ig dilution prepared in carbonate buffer (25 ng of huMAdCAM/well in 50 μl carbonate buffer) overnight at 4° C. Carbonate buffer is NaHCO3 3.44 g, Na2CO3 1.72 g, water qs 200 ml; adjust pH to 9.5, filter thru 0.2 μm and store at 4° C.
2. Wash plates with the plate washer (BioTeck Instruments EL404) once, using settings for washing cell rinse, with the following parameters:
3. Block wells with blocking buffer (10% calf serum, PBS), 100 μl/well, 37° C., 3 h.
4. Wash plates with the plate washer once, using settings for washing cell rinse. Use plates within 10 min after washing.
5. Label the RPMI 8866 cells with 2′,7′-bis-(2-carboxyethyl)-5-6-carboxy-fluorescein acetoxymethyl ester (BCEF-AM) as follows:
spin down the cells at 1500 rpm, 10 min. Decant supernatant. Resuspend cells at 4×10^6 cells/ml sterile PBS in 50 ml polypropylene tube. Add 2 μl BCEF-AM per ml of resuspended cells. Mix well and wrap tube in aluminum foil (to exclude light). Place cells at 37° C. for 30 min to label. Spin labeled cells down (while covered in aluminum foil) at 1500 rpm, 10 min. Decant supernatant. Resuspend labeled cells in 25 ml assay buffer and centrifuge at 1500 rpm, 10 min. Resuspend labeled cells in assay buffer at 2.5×10^6 cells/ml.
(assay buffer: HBSS, penicillin/streptomycin 10×, MnCl2 0.5 mM, Hepes 25 mM, pH=7.2)
6. Prepare dilutions of positive control: LDP-02 (α4β7 integrin blocking antibody) in assay buffer at 250 μg/ml and compounds of the invention in DMSO for addition to assay plates.
7. To polypropylene plate, add, with Multimek:
2.2 μl/well of 100% DMSO or compound dilutions;
147.8 μl/well of assay buffer to all wells;
50 μl/well of BCEF-labeled RPMI 8866 cells (at 2.5×10^6 cells/ml assay buffer);
Mix well and add 180 μl of the mix to huMAdCAM-1-Ig coated plate.
8. Read plate in fluorescent plate reader (excite at 485 nm, read at 535 nm) and adjust the gain (total signal).
9. Wrap plates in aluminum foils and incubate at 25° C. for 30 min.
10. Wash plates with the plate washer using settings for washing cell rinse.
11. Read plate in fluorescent plate reader (excite at 485 nm, read at 535 nm).
The following Table 2 summarizes the results for some of the compounds and indicates the IC50 in μM.
As for `Cc1ccccc1N1C(=O)NC(=O)/C(=C/c2cn(C)c3ccccc23)C1=O` [Example 15, 5-(1-Methyl-1H-indol-3-ylmethylene)-1-o-tolyl-pyrimidine-2,4,6-trione], the IC50 came to 2.3 µM.

In turn, `Cc1cccc(N2C(=O)NC(=O)/C(=C\c3ccc[nH]3)C2=O)c1` [Example 24, 5-(Pyrrol-2-ylmethylene)-1-m-tolyl-pyrimidine-2,4,6-trione] came in with an IC50 of 2.95 µM.

`Cc1cccc(N2C(=O)NC(=O)/C(=C/c3c[nH]c4ccccc34)C2=O)c1` [Example 17, 5-(1H-Indol-3-ylmethylene)-1-m-tolyl-pyrimidine-2,4,6-trione] came in with an IC50 of 2.93 µM.

The compound `O=C1NC(=O)N(c2cccc(Cl)c2)C(=O)/C1=C/c1c[nH]c2ccccc12` [Example 37, 1-(3-Chloro-phenyl)-5-(1H-indol-3-ylmethylene)-pyrimidine-2,4,6-trione] displayed an IC50 of 2.75 µM.

The compound `O=C1NC(=O)N(Cc2cccnc2)C(=O)/C1=C/c1c[nH]c2ccccc12` [Example 49, 5-(1H-indol-3-ylmethylene)-1-pyridin-3-ylmethyl-pyrimidine-2,4,6-trione] had a half-inhibitory concentration (IC50) of 1.3 µM.

Take `O=C1NC(=O)N(c2ccccc2Cl)C(=O)/C1=C\C=C\c1ccccc1` [Example 43, 1-(2-Chloro-phenyl)-5-(3-phenyl-allylidene)-pyrimidine-2,4,6-trione]: the IC50 is 1.9 µM.

In turn, `O=C1NC(=O)N(c2cccc3ccccc23)C(=O)/C1=C\c1c[nH]c2ccccc12` [Example 1, 5-(1H-Indol-3-ylmethylene)-naphthalen-1-yl-pyrimidine-2,4,6-trione] yielded a half-maximal inhibitory concentration (IC50) of 0.41 µM.

As to `Cc1ccccc1N1C(=O)NC(=O)/C(=C/C=C/c2ccccc2)C1=O` [Example 35, 5-(3-Phenyl-allylidene)-1-o-tolyl-pyrimidine-2,4,6-trione], the IC50 amounted to 2.65 µM.

`O=C1NC(=O)N(c2ccccc2Cl)C(=O)/C1=C\c1c[nH]c2ccccc12` [Example 18, 1-(2-Chloro-phenyl)-5-(1H-indol-3-ylmethylene)-pyrimidine-2,4,6-trione] registered an IC50 of 2.5 µM.

Turning to `O=C1NC(=O)N(c2cccc3cccnc23)C(=O)/C1=C/C=C/c1ccccc1` [Example 51, 5-(3-Phenyl-allylidene)-1-quinolin-8-yl-pyrimidine-2,4,6-trione], the concentration for half-maximal inhibition (IC50) was 2.7 µM.

`Cn1cc(/C=C2/C(=O)NC(=O)N(c3cccc4ccccc34)C2=O)c2ccccc21` [Example 2, 5-(1-Methyl-1H-indol-3-ylmethylene)-1-naphthalen-1-yl-pyrimidine-2,4,6-trione] yielded an IC50 of 0.94 µM.

Consider `Cc1cccc(N2C(=O)NC(=O)/C(=C\C=C\c3ccccc3)C2=O)c1` [Example 16, 5-(3-Phenyl-allylidene)-1-m-tolyl-pyrimidine-2,4,6-trione], for which the IC50 worked out at 0.9 µM.

As for `Cc1ccc(N2C(=O)NC(=O)/C(=C\C=C\c3ccccc3)C2=O)cc1` [Example 42, 5-(3-Phenyl-allylidene)-1-p-tolyl-pyrimidine-2,4,6-trione], the IC50 amounted to 2.6 µM.
